Test results published in PubChem BioAssay (NCI).
Several values for one entry are separate records, joined by “and”; a condition that tells them apart may be missing. Equal entries are not always repeated.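 1) Cells in 96-well plates. 2) Compound, 48 h, 5 concentrations. 3) Linear interpolation between surrounding doses. 4) Unreached endpoint = highest concentration. GI50 is the concentration that inhibits growth by half. TGI: total growth inhibition.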

Legend:
Experiment in all cases: NCI tumour cell line growth inhibition, 48 h
[1] = test system: HOP-18 NSCLC
[2] = test system: DMS 273 small cell lung
[3] = test system: XF 498 CNS
[4] = test system: NCI/ADR-RES ovarian
[5] = test system: RXF-631 renal
[6] = test system: MDA-N

Row | Structure (SMILES) | TGI [1] | TGI [2] | GI50 [4] | TGI [4] | other results
1 | C[C@@H](NC1CCC[C@@H]1O)c1ccccc1 (stereo partly drawn) | > 100 µM | > 100 µM | – | – | TGI [3]: > 100 µM
2 | COc1ccc(-c2csc(NC(=O)N3CCN(c4cc5c(cc4F)c(=O)c(C(=O)O)cn5C4CC4)CC3)n2)cc1 | – | – | 5.87 µM | > 100 µM | –
3 | CC(C(=O)c1ccccc1)C1(O)C(=O)Nc2ccccc21 (stereo not drawn) | > 100 µM | > 100 µM | – | – | TGI [5]: > 100 µM
4 | CCOC(=O)CNC1C(NC(C)=O)C(OC)OC2COC(c3ccccc3)OC21 (stereo not drawn) | > 100 µM | > 100 µM | – | – | TGI [5]: > 100 µM
5 | O=C(Nc1ccc(Cl)cc1)c1cc2cc(F)ccc2cc1O | – | – | 2.5 µM | 8.05 µM | –
6 | CCN(CC)CCOC(=O)/C(=C/c1ccc(OC)cc1)c1cc(OC)c(OC)c(OC)c1 | > 100 µM | 23.4 µM | – | – | TGI [5]: > 100 µM
7 | O=C1CCC2=C3C4CCCCC4C(=O)C4CCCC(OC2C1)C34 (stereo not drawn) | – | – | 0.36 µM | 4.06 µM | –
8 | COc1cc2ccc(/C(C)=N/OC(C)=O)cc2cc1OC | > 100 µM | > 100 µM | – | – | TGI [5]: > 100 µM; TGI [3]: > 100 µM
9 | Cc1[nH]c2ccccc2c1C1CC(=O)NC1=O (stereo not drawn) | – | > 100 µM | – | – | –
10 | CC1OC(O[C@H]2/C=C/C=C/C=C/C=C/C=C/C=C/C=C/[C@H](C)[C@@H](O)[C@@H](C)[C@H](C)OC(=O)C[C@H](O)C[C@H](O)CC[C@@H](O)[C@H](O)C[C@H](O)C[C@]3(O)C[C@H](O)[C@@H](C(=O)O)[C@H](C2)O3)C(O)C(N)C1O (stereo partly drawn) | – | – | 24.9 µM | 56.5 µM | TGI [6]: 24.4 µM
11 | COc1cc2c(=O)n(CCCn3ccnc3)c3c4cc5c(cc4ccc3c2cc1OC)OCO5 | – | – | 1.08 µM | > 100 µM | –
12 | CC([C@H]1CCC2C3CCC4CC5(CC[C@]4(C)C3CC[C@@]21C)c1ccccc1C(=O)N5C)N(C)C (stereo partly drawn) | > 100 µM | 75.4 µM | – | – | –
13 | O=C(O[C@H]1CN[C@H](C#Cc2cc3ncnc(Nc4ccc(OCc5cccc(F)c5)c(Cl)c4)c3s2)C1)N1CCOCC1 | – | – | 6.3 µM | > 25 µM | –
14 | NCC1OC(n2cnc3c(=O)[nH]c(N)nc32)C(O)C1O (stereo not drawn) | – | – | – | > 100 µM | TGI [6]: > 100 µM
15 | O=S1c2ccccc2N=C(c2ccc(Cl)cc2)CC1c1cccs1 (stereo not drawn) | 71.1 µM | 28.2 µM | – | – | –
16 | COc1cc2c(Nc3ccc(Br)cc3F)ncnc2cc1OCC1CCN(C)CC1 | – | – | 5.58 µM and > 10 µM | 19.1 µM and > 10 µM | –
17 | O=C1CC2C(=O)C1C(C(=O)O)C2C(=O)O (stereo not drawn) | – | – | – | > 100 µM | TGI [6]: > 100 µM
18 | ClC1(c2ccccc2)c2ccc(Br)cc2-c2cc(Br)ccc21 | – | – | – | 34.3 µM | –
19 | COc1ccc(-c2nc(N)c3ncn(C4OC(CO)C(O)C4O)c3n2)cc1 (stereo not drawn) | – | – | – | > 100 µM | TGI [6]: > 100 µM
20 | CCOC(=O)/C(C#N)=C\C=C1/C=CNC2=NCCN21 | > 100 µM | > 100 µM | – | – | TGI [3]: > 100 µM
21 | CCC(c1ccc(OC)cc1)C(CC)c1ccc(O)c(CN2CCCC2)c1 (stereo not drawn) | – | – | 5.92 µM | 22.3 µM | –
